In US20100086599A1, “ORAL MODIFIED RELEASE FORMULATIONS” (KAIROSMED GMBH, priority 2006, published 2010):
“Also recorded” adds a separate entry of the source. Like-named read-outs stand apart in the source and are kept apart here. Each block holds one compound with its values, some of them ahead of it.

How the values were obtained:
[1] = low pH-values; cited from earlier work
[2] = molecular target: T1, SHBG (Homo sapiens, UniProt P04278); settings: cited from earlier work
T1 sequence (P04278 30-402): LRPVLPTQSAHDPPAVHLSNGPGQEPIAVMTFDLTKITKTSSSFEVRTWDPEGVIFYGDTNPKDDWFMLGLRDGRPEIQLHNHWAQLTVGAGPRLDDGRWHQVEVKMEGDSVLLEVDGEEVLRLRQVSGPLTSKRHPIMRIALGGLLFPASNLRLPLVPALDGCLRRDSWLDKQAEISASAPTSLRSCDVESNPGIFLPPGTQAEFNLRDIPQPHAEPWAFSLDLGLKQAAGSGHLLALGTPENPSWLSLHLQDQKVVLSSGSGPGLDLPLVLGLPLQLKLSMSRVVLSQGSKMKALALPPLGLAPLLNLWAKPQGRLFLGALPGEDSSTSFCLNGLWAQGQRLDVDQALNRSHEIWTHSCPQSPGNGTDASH

[3] = system: SHBG or CBG serum levels; settings: in vivo; cited from earlier work
[4] = cited from earlier work
[5] = molecular target: T2, AR (Homo sapiens, UniProt P10275); settings: cited from earlier work
T2 sequence (P10275 1-920): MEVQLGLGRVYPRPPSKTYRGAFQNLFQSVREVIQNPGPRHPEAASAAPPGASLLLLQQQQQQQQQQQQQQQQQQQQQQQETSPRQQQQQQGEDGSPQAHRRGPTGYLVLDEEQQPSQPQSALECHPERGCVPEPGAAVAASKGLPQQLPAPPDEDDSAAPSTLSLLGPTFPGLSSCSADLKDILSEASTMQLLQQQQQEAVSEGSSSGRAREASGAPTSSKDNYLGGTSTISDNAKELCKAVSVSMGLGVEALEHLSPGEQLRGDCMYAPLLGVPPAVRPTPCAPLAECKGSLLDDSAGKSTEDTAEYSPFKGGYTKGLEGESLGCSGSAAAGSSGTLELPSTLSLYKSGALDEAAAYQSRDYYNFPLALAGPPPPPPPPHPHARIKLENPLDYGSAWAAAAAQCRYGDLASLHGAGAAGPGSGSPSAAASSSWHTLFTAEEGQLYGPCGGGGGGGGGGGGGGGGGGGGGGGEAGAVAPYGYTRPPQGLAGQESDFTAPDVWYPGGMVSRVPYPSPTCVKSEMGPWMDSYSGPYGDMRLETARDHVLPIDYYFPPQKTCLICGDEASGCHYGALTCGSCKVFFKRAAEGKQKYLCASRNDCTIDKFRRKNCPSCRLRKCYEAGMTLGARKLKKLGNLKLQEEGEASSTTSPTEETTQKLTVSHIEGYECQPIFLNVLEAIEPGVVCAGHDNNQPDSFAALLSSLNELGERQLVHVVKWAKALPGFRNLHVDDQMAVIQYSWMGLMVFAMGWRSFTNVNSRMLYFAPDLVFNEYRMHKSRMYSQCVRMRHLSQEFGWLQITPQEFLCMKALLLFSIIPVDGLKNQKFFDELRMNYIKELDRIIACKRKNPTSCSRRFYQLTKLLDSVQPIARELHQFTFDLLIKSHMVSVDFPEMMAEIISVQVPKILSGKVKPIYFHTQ

[6] = pH-dependent solubility and in vitro dissolution of 8-PN; assay type: physicochemical
Text: The solid oral modified release formulations of this invention show a pH-independent drug release in vitro. This is important as the pH varies considerably in the gastro-intestinal tract and continuous release should be achieved independent of the pH. In contrast to C21-progestins (MPA, CPA, DRSP), however, the solubility of 8-PN is pH-dependent. […] The low acid solubility property of 8-Prenylnaringenin results in vitro in slow drug dissolution at pH 1, whereas the dissolution is fast at higher pH-values such as pH 6.8. The resulting dissolution profiles are different at different pH-values. This problem is solved by the solid oral modified release formulation of this invention. […]

[7] = clinical Phase Ia study: pharmacokinetics of oral 8-PN; assay type: in vivo, women
Text: The pharmacokinetic profile of 8-PN is characterized by a complete oral absorption, a low degree of metabolization (less than 60% of dose) and a high pre-systemic elimination (first-liver-pass excretion, about 55% of dose). The high and unexpected pre-systemic elimination leads to a collection of substantial dose parts in the bile fluid from which these dose parts are secreted into the duodenum when gastric signaling occurs with a meal uptake. Respective dose parts are then absorbed again and reach systemic circulation. Data were taken from the clinical Phase la study and represent two volunteers of the lowest dose group (50 mg 8-Prenylnaringenin).
Taking the total area under the curve as a measure for 8-Prenyinaringenin systemic availability, the percentage of the area under the second peak (generated by reabsorption of the pre-systemically eliminated and then biliary secreted dose parts) can be used to estimate those dose parts which undergo pre-systemic elimination after oral dosing. On an average of six women investigated this figure is 54±20%.
Re-increases in drug serum levels show re-absorption of dose parts collected in the bile fluid and subsequently secreted triggered by lunch.

[8] = molecular target: T3, GR (Homo sapiens, UniProt P04150); settings: cited from earlier work
T3 sequence (P04150 1-777): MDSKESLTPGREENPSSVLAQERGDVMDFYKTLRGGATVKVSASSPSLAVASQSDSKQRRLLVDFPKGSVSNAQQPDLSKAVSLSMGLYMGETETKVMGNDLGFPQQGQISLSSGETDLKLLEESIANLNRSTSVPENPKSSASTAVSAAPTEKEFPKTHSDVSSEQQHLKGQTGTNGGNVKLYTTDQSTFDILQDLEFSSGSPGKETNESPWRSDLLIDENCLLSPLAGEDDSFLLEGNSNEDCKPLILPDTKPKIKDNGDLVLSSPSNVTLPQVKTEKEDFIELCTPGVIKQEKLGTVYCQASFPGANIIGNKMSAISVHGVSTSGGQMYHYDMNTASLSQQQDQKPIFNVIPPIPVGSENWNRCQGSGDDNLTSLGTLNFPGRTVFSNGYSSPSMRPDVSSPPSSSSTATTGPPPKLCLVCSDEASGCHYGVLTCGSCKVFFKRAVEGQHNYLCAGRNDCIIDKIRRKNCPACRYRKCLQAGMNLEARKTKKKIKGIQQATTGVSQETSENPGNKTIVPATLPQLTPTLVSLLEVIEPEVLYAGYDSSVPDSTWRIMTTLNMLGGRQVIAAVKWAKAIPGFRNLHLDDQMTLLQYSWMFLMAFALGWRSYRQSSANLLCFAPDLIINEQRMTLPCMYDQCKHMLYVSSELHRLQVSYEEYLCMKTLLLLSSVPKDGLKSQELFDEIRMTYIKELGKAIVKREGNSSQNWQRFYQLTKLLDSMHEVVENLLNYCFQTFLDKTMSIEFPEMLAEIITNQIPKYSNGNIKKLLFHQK

[9] = system: estrogen receptor; settings: cited from earlier work
[10] = system: CYP isoenzymes; assay: metabolism by CYP isoenzymes; assay type: in vitro ADME
[11] = molecular target: T4, PR (Homo sapiens, UniProt P06401); settings: cited from earlier work
T4 sequence (P06401 1-933): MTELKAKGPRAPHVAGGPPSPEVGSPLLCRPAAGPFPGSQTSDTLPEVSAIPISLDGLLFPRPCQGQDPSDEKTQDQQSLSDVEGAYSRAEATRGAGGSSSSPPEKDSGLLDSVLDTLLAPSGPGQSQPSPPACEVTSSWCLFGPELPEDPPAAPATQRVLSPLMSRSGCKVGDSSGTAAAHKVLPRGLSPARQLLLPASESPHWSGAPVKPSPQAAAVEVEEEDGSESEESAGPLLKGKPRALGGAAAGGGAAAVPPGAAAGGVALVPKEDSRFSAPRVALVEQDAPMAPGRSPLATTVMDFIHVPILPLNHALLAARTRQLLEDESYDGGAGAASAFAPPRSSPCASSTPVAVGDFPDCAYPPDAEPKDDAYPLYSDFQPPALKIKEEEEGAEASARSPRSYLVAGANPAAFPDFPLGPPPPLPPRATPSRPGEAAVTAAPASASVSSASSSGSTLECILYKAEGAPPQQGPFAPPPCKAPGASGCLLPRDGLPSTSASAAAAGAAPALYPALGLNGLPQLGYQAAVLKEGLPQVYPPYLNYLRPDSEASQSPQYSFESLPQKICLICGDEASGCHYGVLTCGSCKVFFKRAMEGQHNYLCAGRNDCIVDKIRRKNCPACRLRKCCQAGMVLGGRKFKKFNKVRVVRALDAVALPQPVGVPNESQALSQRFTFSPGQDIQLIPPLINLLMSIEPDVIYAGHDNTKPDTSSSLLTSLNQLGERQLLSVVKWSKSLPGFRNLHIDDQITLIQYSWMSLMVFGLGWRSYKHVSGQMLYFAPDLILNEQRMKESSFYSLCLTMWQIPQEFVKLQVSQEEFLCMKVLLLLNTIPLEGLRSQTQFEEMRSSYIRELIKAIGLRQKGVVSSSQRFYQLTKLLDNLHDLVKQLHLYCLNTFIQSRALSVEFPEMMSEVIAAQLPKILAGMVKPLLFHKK

[12] = cited from earlier work; remark: listed apart in the source
[13] = 3 mg oral, daily repeated administration
[14] = single oral intake of 3 mg DRSP

Compound: C[C@]12CCC(=O)C=C1[C@@H]1C[C@@H]1[C@H]1[C@@H]3[C@@H]4C[C@@H]4[C@@]4(CCC(=O)O4)[C@@]3(C)CC[C@@H]12 [DRSP, Drospirenone]
- stability (opening of carbolactone ring to the inactive acid) [1]: sensitive to low pH-values
- binding to SHBG [2]: does not bind
- suppression of EE induced SHBG or CBG serum levels [3]: does not suppress
- AUC [4, 13]: about 920 ng×h/ml
- maximum serum level [4, 13]: about 80 ng/ml
- apparent volume of distribution ([4]; in vivo): 4 L/kg
- disposition half-life ([4]; in vivo): 31 h
- metabolism ([4]; mainly by CYP3A4): only slightly metabolized
- oral absorption ([4]; oral): complete
- AUC0-24h [4, 14]: 288 ng·h/mL
- maximum serum levels [4, 14]: 37 ng/mL
- time at which maximum serum levels were reached [4, 14]: 1.7 h

- solubility ([6]; higher at higher pH-values, low at lower pH-values): pH-dependent
- drug dissolution in vitro ([6]; pH 1): slow
- drug dissolution in vitro ([6]; pH 6.8): fast
- degree of metabolization ([7]; oral): less than 60 % of dose
- oral absorption ([7]; oral): complete
- pre-systemic elimination (first-liver-pass excretion) ([7]; oral): about 55 % of dose
- CV of mean AUC ([7]; oral dose 250 mg): 42%
- CV of mean AUC ([7]; oral dose 750 mg): 29%
- percentage of the area under the second peak of total AUC (dose parts undergoing pre-systemic elimination) ([7]; oral, average of six women): 54±20%
- metabolism by CYP isoenzymes ([10]; listed as 8-Prenylnaringenin): high metabolic stability
Compound: CC(C)=CCc1c(O)cc(O)c2c1OC(c1ccc(O)cc1)CC2=O (stereo not shown) [Example 8-PN, 5,7-Dihydroxy-2-(4-hydroxyphenyl)-8-(3-methylbut-2-enyl)-chroman-4-on]
- binding or activation of the AR [5]: devoid of binding or activation
- binding or activation of the GR [8]: devoid of binding or activation
- anti-estogenic activity [9]: without any anti-estogenic activity
- metabolism by CYP isoenzymes [10]: surprisingly low extent of metabolism; also recorded: high metabolic stability
- binding or activation of the PR [11]: devoid of binding or activation

Compound: C[C@]12CC[C@@H]3c4ccc(O)cc4CC[C@H]3[C@@H]1CC[C@@H]2O [Example E2, 17β-estradiol]
- coefficient of variation (CV) of the mean AUC ([12]; oral 2 mg E2, N=14): 127%
- coefficient of variation (CV) of the mean AUC ([12]; oral 4 mg E2, N=14): 91%
- coefficient of variation (CV) of the mean AUC ([12]; oral 8 mg E2, N=14): 70%
- oral bioavailability ([12]; oral): 1-3 % of dose
